Reference: patent US20220289719A1, “HETEROCYCLIC COMPOUNDS AS MNK INHIBITORS” (NANJING INNOCARE PHARMA TECH CO., LTD., priority 2017, published 2022)
Counter-ions that a name gives are not always drawn.

Target: T1, Human recombinant full-length MNK1 protein (Homo sapiens, UniProt Q9BUB5)
T1 construct: Human recombinant full-length MNK1 protein; purchased Thermo PR9138A
Assay: MNK1 inhibitory activity assay (ADP-Glo in vitro kinase assay)
Format: biochemical
Details: 10 concentration points
Method: MNK1 Inhibitory Activity Assay: Evaluation of the effects of compounds of the invention on […] (MNK1) activity using in vitro kinase assays. The experimental methods are summarized as follows: The in vitro activity of MNK1 was determined by measuring the level of ADP produced in the kinase reaction using the ADP-Glo Kinase Assay Kit. The reaction buffer consisted of the following components: 50 mM HEPES, pH 7.5, 10 mM MgCl2, 1 mM EGTA, 0.01% Brij35. Human recombinant full-length MNK1 protein (Thermo, Cat. No. PR9138A) was diluted with a reaction buffer to a 3.13 ng/uL kinase solution. The substrate reaction solution consisted of a substrate diluted to 0.75 mg/ml in reaction buffer ([…], available from […] Domestic Company), 2250 uM ATP, the ADP-Glo reagent and kinase assay solution from Promega kit (Promega, V9102). […] If the compound IC50 value is very low, the initial concentration of the compound can be lowered. To a 384-well assay plate (Thermo, Cat. No. 264706) were added 1 uL of compound solution and 2 uL of MNK1 kinase solution. The mixture was mixed well and incubated for 30 minutes at room temperature; then 2 uL of substrate reaction solution was added, the reaction mixture was incubated for 120 minutes at room temperature. The reaction was terminated after an equal volume of 5uLADP-Glo solution was added, and the remaining ATP was completely consumed. After mixing for 60 minutes at room temperature, 10 ul of the kinase assay solution was added, and the mixture was uniformly mixed, and allowed to stand at room temperature for 40 minutes in the dark. The detection solution converts ADP into new ATP through coupled luciferase/luciferin, and ATP is converted into optical signal by Ultr-GloTM luciferase, which can be detected by Envision. The intensity of the light signal is proportional correlated with the amount of ADP produced in the kinase reaction, therefore, the activity of MNK1 kinase can be determined. In this experiment, the group without protein was used as a negative control (100% inhibition). The group with protein but without compounds was used as a positive control (0% inhibition).

T1 sequence (Q9BUB5 whole entry): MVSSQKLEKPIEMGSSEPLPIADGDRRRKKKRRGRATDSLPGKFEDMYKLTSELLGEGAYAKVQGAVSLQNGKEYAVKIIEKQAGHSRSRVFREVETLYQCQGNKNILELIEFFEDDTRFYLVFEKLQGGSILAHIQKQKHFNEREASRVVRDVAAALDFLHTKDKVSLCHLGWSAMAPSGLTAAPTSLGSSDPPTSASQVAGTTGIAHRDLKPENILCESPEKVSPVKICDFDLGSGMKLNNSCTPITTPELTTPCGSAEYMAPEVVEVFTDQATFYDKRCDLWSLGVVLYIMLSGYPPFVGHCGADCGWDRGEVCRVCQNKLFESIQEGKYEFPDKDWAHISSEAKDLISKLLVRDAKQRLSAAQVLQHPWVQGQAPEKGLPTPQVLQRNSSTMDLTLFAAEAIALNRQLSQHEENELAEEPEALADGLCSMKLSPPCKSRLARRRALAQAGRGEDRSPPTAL

SMILES | IC50 [nM]
COc1c(Nc2ncnc3[nH]cnc23)ccc2c1CNC2=O [Compound 80, 5-((9H-Purin-6-yl)amino)-4-methoxyisoindolin-1-one] | 11.7
COc1cc2[nH]ncc2cc1Nc1cc(Nc2ccccn2)ncn1 [Compound 20, 5-(6-(Pyridin-2-ylamino)pyrimidin-4-ylamino)-6-methoxy-1H-indazole formate] | 29.2
COc1c(N)ncnc1Nc1ccc2c(c1OC)CNC2=O [Compound 71, 5-((6-Amino-5-methoxypyrimidin-4-yl)amino)-4-methoxyisoindolin-1-one] | 128
COc1cc2c(cnn2C)cc1Nc1cc(NC(=O)C2CC2)ncn1 [Compound 5, 5-(6-Cyclopropionamidopyrimidin-4-ylamino)-6-methoxyl-methylindazole formate] | 585
COc1cc2[nH]ncc2cc1Nc1ncncc1-c1nc2cccc(N3CCN[C@@H](C)C3)c2n1C [Compound 64, 6-Methoxy-N-(4-{1-methyl-7-[(3S)-3-methylpiperazin-1-yl]-1H-benzimidazol-2-yl}pyrimidine-5-)-1H-indazol-5-amine] | 437
COc1cc2c(cnn2C(=O)C2CCCCC2)cc1Nc1cc(NC(=O)C2CC2)ncn1 [Compound 8, 1-Cyclohexanoyl-5-(6-cyclopropionamidopyrimidin-4-ylamino)-6-methoxyindazole] | 64.1
COc1cc2ncn(C(=O)OC(C)(C)C)c2cc1Nc1cc(NC(=O)C2CC2)ncn1 [Compound 61, 3-tert-butoxycarbonyl-5-(6-cyclopropionamidopyrimidin-4-ylamino)-6-methoxybenzimidazole] | 594
COc1cc2[nH]ncc2cc1Nc1cc(NC(=O)c2ccccn2)ncn1 [Compound 11, 5-(6-(2-Pyridine) formylaminopyrimidin-4-ylamino)-6-methoxy-1H-indazole] | 532
COc1cc2[nH]ncc2cc1Nc1cc(NS(=O)(=O)C2CC2)ncn1 [Compound 49, 5-((6-(Cyclopropanesulfonylamino)pyrimidin-4-yl)amino)-6-methoxy-1H-indazole] | 1050
COc1cc2c(cnn2C(=O)OC(C)(C)C)cc1Nc1ncnc(N)c1-c1ccccn1 [Compound 43] | 264
COc1cncnc1Nc1ccc2c(c1OC)CNC2=O [Compound 74, 5-((5-Methoxypyrimidin-4-yl)amino)-4-methoxyisodihydroindole-1-one] | 38.4
COCCOc1cncnc1Nc1cc2cn[nH]c2cc1OC [Compound 53] | 22.8
CCOc1cncnc1Nc1cc2cn[nH]c2cc1OC [Compound 56, 5-(5-Ethoxypyrimidin-4-yl) amino)-6-methoxy-1H-indazole formate] | 19.8
COc1cc2c(cnn2C(=O)C(C)C)cc1Nc1cc(NC(=O)C2CC2)ncn1 [Compound 13, 1-Isobutyryl-5-(6-cyclopropionamidopyrimidin-4-ylamino)-6-methoxyindazole] | 225
COc1cc2[nH]ncc2cc1Nc1ncnc(N)c1C1=CCC(C(=O)O)CC1 (stereo not shown) [Compound 32, 5-((6-Amino-5-cyclohex-3-ene-1-carboxypyrimidin-4-yl)amino)-6-methoxy-1H-indazole hydrochloride] | 166
CCOC(=O)c1c(NC(C)=O)ncnc1Nc1cc2cnn(C(=O)OC(C)(C)C)c2cc1OC [Compound 37, 1-tert-Butoxycarbonyl-5-((6-(acetylamino)-5-ethoxycarbonylpyrimidin-4-yl)amino)-6-methoxyindazole] | 23.8
COc1cc2c(cnn2C(=O)OC(C)(C)C)cc1Nc1cc(NC(C)=O)ncn1 [Compound 1, 1-tert-Butoxycarbonyl-5-(6-acetylaminopyrimidin-4-ylamino)-6-methoxyindazole] | 15.5

More lines, now with the values ahead:

IC50 [nM] | SMILES
19.1 | COc1c(Nc2cc(Nc3cc(Cl)ccn3)ncn2)ccc2c1CNC2=O [Compound 87, 5-((6-((4-Chloropyridin-2-yl)amino)pyrimidin-4-yl)amino)-4-methoxyisoindolin-1-one]
7.8 | CCOC(=O)c1c(N)ncnc1Nc1cc2cn[nH]c2cc1OC [Compound 36, 5-((6-Amino-5-ethoxycarbonylpyrimidin-4-yl)amino)-6-methoxy-1H-indazole dicarboxylate]
1110 | COc1cc2c(cnn2C(=O)C2CC2)cc1Nc1cc(NC(=O)C2CC2)ncn1 [Compound 14, 1-Cyclopropanoyl-5-(6-cyclopropionamidopyrimidin-4-ylamino)-6-methoxyindazole]
19.7 | COc1c(Nc2ncncc2OCCO)ccc2c1CNC2=O [Compound 78, 5-((5-(2-Hydroxyethoxy)pyrimidin-4-yl)amino)-4-methoxyisoindolin-1-one]
79.1 | COc1cc2[nH]ncc2cc1Nc1ncnc(N)c1C [Compound 47, 5-((6-Amino-5-methylpyrimidin-4-yl)amino)-6-methoxy-1H-indazole]
29.8 | CCOc1cc2[nH]ncc2cc1Nc1cc(NC(=O)C2CC2)ncn1 [Compound 6, 5-(6-Cyclopropionamidopyrimidin-4-ylamino)-6-ethoxy-1H-indazole]
141 | CNc1cc(Nc2cc3cn[nH]c3cc2OC)ncn1 [Compound 30, 5-(6-Methylaminopyrimidin-4-ylamino)-6-methoxy-1H-indazole]
14.4 | COc1cc2[nH]ncc2cc1Nc1ncncc1OC [Compound 52]
27.3 | COc1c(Nc2cc(Nc3ncccn3)ncn2)ccc2c1CNC2=O [Compound 69, 5-((6-(Pyrimidin-2-ylamino)pyrimidin-4-yl)amino)-4-methoxyisodihydroindol-1-one]
17 | COc1c(Nc2cc(Nc3ccncn3)ncn2)ccc2c1CNC2=O [Compound 70, 5-((6-(Pyrimidin-4-ylamino)pyrimidin-4-yl)amino)-4-methoxyisodihydroindol-1-one]
13 | COc1cc2[nH]ncc2cc1Nc1ncnc(N)c1C(=O)O [Compound 39, 5-((6-Amino-5-carbonylpyrimidin-4-yl)amino)-6-methoxy-1H-indazole formate]
27.9 | COC(=O)n1ncc2cc(Nc3cc(NC(=O)C4CC4)ncn3)c(OC)cc21 [Compound 17, 1-Methoxyacyl-5-(6-cyclopropionamidopyrimidin-4-ylamino)-6-methoxyindazole]
94.7 | COc1cc2[nH]ncc2cc1Nc1ncnc(N)c1C1=CCC(C(=O)N2CCN(C)CC2)CC1 (stereo not shown) [Compound 33, 5-((6-Amino-5-cyclohex-3-en-1-yl (4-methylpiperazin-1-yl)methanylpyrimidin-4-yl)amino)-6-methoxy-1H-indazole formate]
78.2 | COc1cc2[nH]ncc2cc1Nc1cc(Nc2cc(Cl)ccn2)ncn1 [Compound 21, 5-(6-((4-Chloropyridin-2-yl)amino)pyrimidin-4-ylamino)-6-methoxy-1H-indazole]
13.9 | COc1c(Nc2cc(Nc3ccc(Cl)cn3)ncn2)ccc2c1CNC2=O [Compound 85, 5-((6-((5-Chloropyridin-2-yl)amino)pyrimidin-4-yl)amino)-4-methoxyisoindolin-1-one]
40 | COc1cc2[nH]ncc2cc1Nc1cc(Nc2cc(C(F)(F)F)ccn2)ncn1 [Compound 25, 5-(6-((4-(Trifluoromethyl)pyridin-2-yl)amino)pyrimidin-4-ylamino)-6-methoxy-1H-indazole]
900 | COc1c(Nc2ncncc2OCCN(C)C)ccc2c1CNC2=O [Compound 77, 5-((5-(2-(Dimethylamino)ethoxy)pyrimidin-4-yl)amino)-4-methoxyisodihydroindole-1-one dicarboxylate]
450 | COc1cc2[nH]ncc2cc1Nc1ncnc(N)c1C1=CCC(C(=O)N(C)C)CC1 (stereo not shown) [Compound 34, 4-(4-Amino-6-((6-methoxy-1H-indazol-5-yl)amino)pyrimidin-5-yl)-N,N-dimethylcyclohex-3-ene-1-carboxamide formate]
49.4 | COc1cc2[nH]ncc2cc1Nc1ncnc(N)c1OC [Compound 46, 5-((6-Amino-5-methoxypyrimidin-4-yl)amino)-6-methoxy-1H-indazole]
35.3 | COc1cc2[nH]ncc2cc1Nc1ncnc(N)c1F [Compound 45, 5-((6-Amino-5-fluoropyrimidin-4-yl)amino)-6-methoxy-1H-indazole]
38.5 | COc1c(Nc2cc(N)ncn2)ccc2c1CNC2=O [Compound 66, 5-((6-Aminopyrimidin-4-yl)amino)-4-methoxyisoindolin-1-one hydrochloride]
729 | COc1cc2[nH]ncc2cc1Nc1cc(NC(=O)C(C)(C)C)ncn1 [Compound 12, 5-(6-Pivaloylaminopyrimidin-4-ylamino)-6-methoxy-1H-indazole]
1140 | COc1cc2[nH]ncc2cc1Nc1ncnc(N)c1C(=O)N(C)C [Compound 40]
